These results are taken from PubChem BioAssay (NCI).

Among the test systems are 786-0 renal; MOLT-4 leukemia; MDA-MB-231 breast; NCI/ADR-RES ovarian; HS 578T breast; MDA-MB-468 breast; UACC-62 melanoma; SK-MEL-2 melanoma; HL-60(TB) leukemia; A549 NSCLC; HCC-2998 colon; HT29 colon.
Common to all, as to assay: NCI tumour cell line growth inhibition, 384-well format

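GI50: concentration for 50% inhibition of growth. TGI denotes the concentration required for complete inhibition of growth.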

On to `NC(=O)c1cccc2cn(-c3ccc([C@@H]4CCCNC4)cc3)nc12`, for which the GI50 in the test on 786-0 renal is 12.7 µM; with MOLT-4 leukemia, 1.49 µM; with MDA-MB-231 breast it was 14.7 µM; in the test with NCI/ADR-RES ovarian, 13.5 µM; in the test with HS 578T breast, 10.1 µM; in the test with MDA-MB-468 breast it was 1.49 µM. Moreover, the GI50 is 12 µM in the test with UACC-62 melanoma; 23.2 µM with SK-MEL-2 melanoma; 1.85 µM in the test with HL-60(TB) leukemia; 11.8 µM in the test on A549 NSCLC; 14 µM in the test on HCC-2998 colon; 13.4 µM with HT29 colon. Further, the TGI came out at 26.3 µM in the test with 786-0 renal; 2.83 µM in the test with MOLT-4 leukemia; 29 µM in the test with MDA-MB-231 breast; 29.6 µM in the test on NCI/ADR-RES ovarian; 21.9 µM in the test with HS 578T breast; 4.17 µM in the test on MDA-MB-468 breast. In addition, the TGI was 24.5 µM in the test on UACC-62 melanoma; 37.9 µM with SK-MEL-2 melanoma; 3.88 µM in the test on HL-60(TB) leukemia; 24.5 µM with A549 NSCLC; 27.1 µM in the test with HCC-2998 colon; 26.6 µM with HT29 colon.
